US20070209950A1, “METHODS AND DEVICES FOR THE DETECTION AND MEASUREMENT OF FREE METALS IN FLUIDS AND METHODS FOR DIAGNOSING METAL-RELATED DISEASES AND FOR DETERMINING PHARMACOLOGIC DOSING REGIMENS” (priority 2006, published 2007)

Experiments:
[1] = target: apo-glucose dehydrogenase (Acinetobacter calcoaceticus, UniProt P13650); assay: activation of apo-glucose dehydrogenase by co-factor PQQ, electrochemical current; format: biochemical
Text: FIG. 8 is a schematic showing a specific example of glucose being oxidized to gluconone by the holo-enzyme glucose dehydrogenase. In this case the co-enzyme is PQQ and a common mediator used to transducer electrical current through a working electrode is ferrocene. This is another type of configuration in glucometers today.
FIG. 9 is a schematic showing the loss of glucose dehydrogenase activity when the specific co-factor PQQ is removed. As an apo-enzyme, […] is not capable of oxidizing glucose. As a result, transduction of current is blocked.
PQQ was added to apo-enzyme in doses ranging from 100 pM to 100 nM. […] In this case, distinctions were observed by 60 sec.

ceruloplasmin = target: T1, ceruloplasmin (Homo sapiens, UniProt P00450); settings: order of magnitude; read-out: Kd for copper bound to ceruloplasmin; cited from earlier work
T1 sequence (P00450 20-1065): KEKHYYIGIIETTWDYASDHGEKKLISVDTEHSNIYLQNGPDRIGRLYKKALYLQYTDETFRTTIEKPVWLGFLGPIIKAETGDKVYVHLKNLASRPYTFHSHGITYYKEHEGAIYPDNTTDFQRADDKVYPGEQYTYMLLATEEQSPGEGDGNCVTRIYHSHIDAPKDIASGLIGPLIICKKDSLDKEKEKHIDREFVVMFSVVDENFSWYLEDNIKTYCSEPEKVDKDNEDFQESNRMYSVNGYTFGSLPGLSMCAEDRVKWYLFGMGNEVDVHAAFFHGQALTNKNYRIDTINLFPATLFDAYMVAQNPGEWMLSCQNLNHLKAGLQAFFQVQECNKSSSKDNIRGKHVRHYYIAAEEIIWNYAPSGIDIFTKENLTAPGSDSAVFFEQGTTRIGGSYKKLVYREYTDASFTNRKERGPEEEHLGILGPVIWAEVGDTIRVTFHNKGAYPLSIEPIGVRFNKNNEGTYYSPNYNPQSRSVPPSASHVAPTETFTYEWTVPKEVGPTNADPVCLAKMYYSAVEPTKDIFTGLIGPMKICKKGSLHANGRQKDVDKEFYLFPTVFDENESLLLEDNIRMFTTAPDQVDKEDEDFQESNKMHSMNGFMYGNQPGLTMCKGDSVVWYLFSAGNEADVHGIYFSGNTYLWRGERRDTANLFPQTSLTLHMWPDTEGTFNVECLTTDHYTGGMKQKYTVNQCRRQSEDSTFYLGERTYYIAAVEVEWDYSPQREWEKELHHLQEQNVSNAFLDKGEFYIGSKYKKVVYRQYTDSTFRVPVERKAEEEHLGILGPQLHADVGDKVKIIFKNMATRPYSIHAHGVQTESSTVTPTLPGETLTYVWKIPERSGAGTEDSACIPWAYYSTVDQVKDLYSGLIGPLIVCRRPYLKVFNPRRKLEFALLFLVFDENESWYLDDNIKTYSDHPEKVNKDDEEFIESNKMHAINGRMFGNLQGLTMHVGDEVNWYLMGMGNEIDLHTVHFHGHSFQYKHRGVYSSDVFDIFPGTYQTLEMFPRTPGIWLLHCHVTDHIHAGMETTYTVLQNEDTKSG

apo-glucose dehydrogenase, sequence (P13650 25-478): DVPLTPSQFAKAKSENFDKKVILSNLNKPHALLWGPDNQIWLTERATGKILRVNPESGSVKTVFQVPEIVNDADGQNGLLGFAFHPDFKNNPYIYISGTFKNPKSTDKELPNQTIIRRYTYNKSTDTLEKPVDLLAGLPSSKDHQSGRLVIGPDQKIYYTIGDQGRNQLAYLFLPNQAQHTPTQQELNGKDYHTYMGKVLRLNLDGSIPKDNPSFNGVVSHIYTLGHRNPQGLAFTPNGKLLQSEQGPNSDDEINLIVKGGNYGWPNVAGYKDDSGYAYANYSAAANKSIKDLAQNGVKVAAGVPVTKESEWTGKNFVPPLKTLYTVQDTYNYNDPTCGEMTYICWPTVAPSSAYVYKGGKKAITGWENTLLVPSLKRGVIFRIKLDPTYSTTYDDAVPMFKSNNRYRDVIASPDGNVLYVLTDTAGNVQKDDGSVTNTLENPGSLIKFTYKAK

Row | Structure (SMILES) | outward current on addition of co-factor ([1]; FIG. 10, with PQQ) | outward current on addition of co-factor ([1]; FIG. 17, PQQ added to apo-enzyme in doses from 100 pM to 100 nM) | Kd (ceruloplasmin) [nM]
1 | O=C(O)c1cc(C(=O)O)c2c(n1)C(=O)C(=O)c1cc(C(=O)O)[nH]c1-2 [PQQ] | outward current (more negative) results | increase in the measurement of outward current | 
2 | [Cu] [copper] |  |  | ~0.01
